test system: CAL-148; settings: 72 h
Procedure, shortened: (§1)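 Each 384-well plate was pre-loaded with compound dissolved in 5 µl medium, received breast cancer cells in 20 µl suspension, and was incubated 72 h. A 2.5 µl addition of CellTiter-Blue for 2 h at 37 °C was followed by a fluorescence read at 560/590 nm. Data were normalised per plate to vehicle and a positive kill control and checked by Z'-factor. EC50 was fitted from the percent-inhibition dose-response curve, censored at the highest concentration, excluding rows with a drug sensitivity score of zero.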

| SMILES | EC50, CellTiter-Blue viability [nM] |
| --- | --- |
| O=C(Cc1ccc(-c2ccc(OCCN3CCOCC3)cc2)cn1)NCc1ccccc1 [KX2-391] | 47.1 |

test system: CAL-51; settings: 72 h
Procedure, shortened: as §1

| SMILES | EC50, CellTiter-Blue viability [nM] |
| --- | --- |
| Nc1ncn([C@H]2C[C@H](O)[C@@H](CO)O2)c(=O)n1 [Decitabine] | 2380 |
| COc1cc([C@@H]2c3cc4c(cc3[C@@H](O[C@@H]3O[C@@H]5CO[C@@H](c6cccs6)O[C@H]5[C@H](O)[C@H]3O)[C@H]3COC(=O)[C@H]23)OCO4)cc(OC)c1O [Teniposide] | 75.8 |
| O=C(Cc1ccc(-c2ccc(OCCN3CCOCC3)cc2)cn1)NCc1ccccc1 [KX2-391] | 63 |

test system: CAL-85-1; settings: 72 h
Procedure, shortened: as §1

| SMILES | EC50, CellTiter-Blue viability [nM] |
| --- | --- |
| COc1cc([C@@H]2c3cc4c(cc3[C@@H](O[C@@H]3O[C@@H]5CO[C@@H](c6cccs6)O[C@H]5[C@H](O)[C@H]3O)[C@H]3COC(=O)[C@H]23)OCO4)cc(OC)c1O [Teniposide] | 1450 |
| O=C(Cc1ccc(-c2ccc(OCCN3CCOCC3)cc2)cn1)NCc1ccccc1 [KX2-391] | 23.1 |

test system: DU-4475; settings: 72 h
Procedure, shortened: as §1

| SMILES | EC50, CellTiter-Blue viability [nM] |
| --- | --- |
| Nc1ncn([C@H]2C[C@H](O)[C@@H](CO)O2)c(=O)n1 [Decitabine] | 6760 |
| COc1cc([C@@H]2c3cc4c(cc3[C@@H](O[C@@H]3O[C@@H]5CO[C@@H](c6cccs6)O[C@H]5[C@H](O)[C@H]3O)[C@H]3COC(=O)[C@H]23)OCO4)cc(OC)c1O [Teniposide] | 37.1 |
| O=C(Cc1ccc(-c2ccc(OCCN3CCOCC3)cc2)cn1)NCc1ccccc1 [KX2-391] | 46 |

test system: HDQ-P1; settings: 72 h
Procedure, shortened: as §1

| SMILES | EC50, CellTiter-Blue viability [nM] |
| --- | --- |
| COc1cc([C@@H]2c3cc4c(cc3[C@@H](O[C@@H]3O[C@@H]5CO[C@@H](c6cccs6)O[C@H]5[C@H](O)[C@H]3O)[C@H]3COC(=O)[C@H]23)OCO4)cc(OC)c1O [Teniposide] | 1700 |
| O=C(Cc1ccc(-c2ccc(OCCN3CCOCC3)cc2)cn1)NCc1ccccc1 [KX2-391] | 53.6 |

test system: MDA-MB-453; settings: 72 h
Procedure, shortened: as §1

| EC50, CellTiter-Blue viability [nM] | SMILES |
| --- | --- |
| 6490 | Nc1ncn([C@H]2C[C@H](O)[C@@H](CO)O2)c(=O)n1 [Decitabine] |
| 1840 | COc1cc([C@@H]2c3cc4c(cc3[C@@H](O[C@@H]3O[C@@H]5CO[C@@H](c6cccs6)O[C@H]5[C@H](O)[C@H]3O)[C@H]3COC(=O)[C@H]23)OCO4)cc(OC)c1O [Teniposide] |
| 35.1 | O=C(Cc1ccc(-c2ccc(OCCN3CCOCC3)cc2)cn1)NCc1ccccc1 [KX2-391] |

test system: BT-474; settings: 72 h
Procedure, shortened: as §1

| EC50, CellTiter-Blue viability [nM] | SMILES |
| --- | --- |
| 1970 | Nc1ncn([C@H]2C[C@H](O)[C@@H](CO)O2)c(=O)n1 [Decitabine] |
| 5940 | COc1cc([C@@H]2c3cc4c(cc3[C@@H](O[C@@H]3O[C@@H]5CO[C@@H](c6cccs6)O[C@H]5[C@H](O)[C@H]3O)[C@H]3COC(=O)[C@H]23)OCO4)cc(OC)c1O [Teniposide] |
| 47.9 | O=C(Cc1ccc(-c2ccc(OCCN3CCOCC3)cc2)cn1)NCc1ccccc1 [KX2-391] |

test system: BT-549; settings: 72 h
Procedure, shortened: as §1

| EC50, CellTiter-Blue viability [nM] | SMILES |
| --- | --- |
| 1800 | Nc1ncn([C@H]2C[C@H](O)[C@@H](CO)O2)c(=O)n1 [Decitabine] |
| 1510 | COc1cc([C@@H]2c3cc4c(cc3[C@@H](O[C@@H]3O[C@@H]5CO[C@@H](c6cccs6)O[C@H]5[C@H](O)[C@H]3O)[C@H]3COC(=O)[C@H]23)OCO4)cc(OC)c1O [Teniposide] |
| 37.8 | O=C(Cc1ccc(-c2ccc(OCCN3CCOCC3)cc2)cn1)NCc1ccccc1 [KX2-391] |

test system: HCC1937; settings: 72 h
Procedure, shortened: as §1

| EC50, CellTiter-Blue viability [nM] | SMILES |
| --- | --- |
| 737 | Nc1ncn([C@H]2C[C@H](O)[C@@H](CO)O2)c(=O)n1 [Decitabine] |
| 103 | COc1cc([C@@H]2c3cc4c(cc3[C@@H](O[C@@H]3O[C@@H]5CO[C@@H](c6cccs6)O[C@H]5[C@H](O)[C@H]3O)[C@H]3COC(=O)[C@H]23)OCO4)cc(OC)c1O [Teniposide] |
| 47.2 | O=C(Cc1ccc(-c2ccc(OCCN3CCOCC3)cc2)cn1)NCc1ccccc1 [KX2-391] |

test system: Hs578T; settings: 72 h
Procedure, shortened: as §1

| SMILES | EC50, CellTiter-Blue viability [nM] |
| --- | --- |
| COc1cc([C@@H]2c3cc4c(cc3[C@@H](O[C@@H]3O[C@@H]5CO[C@@H](c6cccs6)O[C@H]5[C@H](O)[C@H]3O)[C@H]3COC(=O)[C@H]23)OCO4)cc(OC)c1O [Teniposide] | 3830 |
| O=C(Cc1ccc(-c2ccc(OCCN3CCOCC3)cc2)cn1)NCc1ccccc1 [KX2-391] | 27.9 |

test system: MDA-MB-436; settings: 72 h
Procedure, shortened: as §1

| EC50, CellTiter-Blue viability [nM] | SMILES |
| --- | --- |
| 90.1 | Nc1ncn([C@H]2C[C@H](O)[C@@H](CO)O2)c(=O)n1 [Decitabine] |
| 1180 | COc1cc([C@@H]2c3cc4c(cc3[C@@H](O[C@@H]3O[C@@H]5CO[C@@H](c6cccs6)O[C@H]5[C@H](O)[C@H]3O)[C@H]3COC(=O)[C@H]23)OCO4)cc(OC)c1O [Teniposide] |
| 51.4 | O=C(Cc1ccc(-c2ccc(OCCN3CCOCC3)cc2)cn1)NCc1ccccc1 [KX2-391] |

test system: MFM-223; settings: 72 h
Procedure, shortened: as §1

| SMILES | EC50, CellTiter-Blue viability [nM] |
| --- | --- |
| COc1cc([C@@H]2c3cc4c(cc3[C@@H](O[C@@H]3O[C@@H]5CO[C@@H](c6cccs6)O[C@H]5[C@H](O)[C@H]3O)[C@H]3COC(=O)[C@H]23)OCO4)cc(OC)c1O [Teniposide] | 1850 |
| O=C(Cc1ccc(-c2ccc(OCCN3CCOCC3)cc2)cn1)NCc1ccccc1 [KX2-391] | 57.4 |

test system: BT-474; settings: 72 h; remark: another data set of the same source
Method: (§2)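 Drug sensitivity and resistance testing (DSRT) of breast cancer cell lines in 384-well plates, 5 concentrations in 10-fold dilutions over a compound-specific 10,000-fold range. After 72 h, cytotoxicity was read by CellTox Green fluorescence and viability by CellTiter-Glo luminescence (multiplexed), normalised to DMSO and benzethonium chloride controls. EC50 is the inflection point of the fitted dose-response curve (bottom asymptote free, so it can be relative for partial curves) and is censored at the highest tested concentration. Rows with DSS 0 (no meaningful response) were excluded.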

| SMILES | EC50, CellTox Green [nM] |
| --- | --- |
| COc1cc2c(NC3CCN(C(C)C)CC3)nc(C3CCCCC3)nc2cc1OCCCN1CCCC1 [UNC0638] | 2200 |
| O=C(Cc1ccc(-c2ccc(OCCN3CCOCC3)cc2)cn1)NCc1ccccc1 [KX2-391] | 307 |

test system: BT-549; settings: 72 h; remark: another data set of the same source
Method: as §2

| SMILES | EC50, CellTox Green [nM] |
| --- | --- |
| COc1cc2c(NC3CCN(C(C)C)CC3)nc(C3CCCCC3)nc2cc1OCCCN1CCCC1 [UNC0638] | 2100 |

test system: CAL-120; settings: 72 h
Method: as §2

| SMILES | EC50, CellTox Green [nM] |
| --- | --- |
| CC(=O)Nc1cccc(-n2c(=O)n(C3CC3)c(=O)c3c(Nc4ccc(I)cc4F)n(C)c(=O)c(C)c32)c1 [Trametinib] | 45.4 |
| COc1cc2c(NC3CCN(C(C)C)CC3)nc(C3CCCCC3)nc2cc1OCCCN1CCCC1 [UNC0638] | 2440 |
| COc1cc([C@@H]2c3cc4c(cc3[C@@H](O[C@@H]3O[C@@H]5CO[C@@H](c6cccs6)O[C@H]5[C@H](O)[C@H]3O)[C@H]3COC(=O)[C@H]23)OCO4)cc(OC)c1O [Teniposide] | 4090 |

test system: CAL-148; settings: 72 h; remark: another data set of the same source
Method: as §2

| SMILES | EC50, CellTox Green [nM] |
| --- | --- |
| COc1cc2c(NC3CCN(C(C)C)CC3)nc(C3CCCCC3)nc2cc1OCCCN1CCCC1 [UNC0638] | 2730 |
| COc1cc([C@@H]2c3cc4c(cc3[C@@H](O[C@@H]3O[C@@H]5CO[C@@H](c6cccs6)O[C@H]5[C@H](O)[C@H]3O)[C@H]3COC(=O)[C@H]23)OCO4)cc(OC)c1O [Teniposide] | 10.7 |

test system: CAL-51; settings: 72 h; remark: another data set of the same source
Method: as §2

| SMILES | EC50, CellTox Green [nM] |
| --- | --- |
| Nc1ncn([C@H]2C[C@H](O)[C@@H](CO)O2)c(=O)n1 [Decitabine] | 28.9 |
| C=CC(=O)N1CCC[C@@H](n2nc(-c3ccc(Oc4ccccc4)cc3)c3c(N)ncnc32)C1 [Ibrutinib] | > 1000 |

Reference: the supplement of paper PMC4862054
